Tests used:
Assay in all cases: biochemical
Settings in all cases: read-out: % inhibition mean (Z'Lyte)
[1] = target: PRKCD (PKC delta) (Homo sapiens, UniProt Q05655)
[2] = target: CDK18/cyclin Y (Homo sapiens, UniProt Q07002)
[3] = target: PAK7 (KIAA1264) (Homo sapiens, UniProt Q9P286)
[4] = target: EGFR (ErbB1) (Homo sapiens, UniProt P00533)
[5] = target: NEK4 (Homo sapiens, UniProt P51957)
[6] = target: CSNK1E (CK1 epsilon) (Homo sapiens, UniProt P49674)
[7] = target: PAK2 (PAK65) (Homo sapiens, UniProt Q13177)
[8] = target: LYN B (Homo sapiens, UniProt P07948)
[9] = target: PRKCZ (PKC zeta) (Homo sapiens, UniProt Q05513)
[10] = target: CSNK2A2 (CK2 alpha 2) (Homo sapiens, UniProt P19784)
[11] = target: MAPK14 (p38 alpha) Direct (Homo sapiens, UniProt Q16539)
[12] = target: BRSK1 (SAD1) (Homo sapiens, UniProt Q8TDC3)
[13] = target: SRC (Homo sapiens, UniProt P12931)
[14] = target: SGKL (SGK3) (Homo sapiens, UniProt Q96BR1)
[15] = target: CAMK2A (CaMKII alpha) (Homo sapiens, UniProt Q9UQM7)
[16] = target: CDK17/cyclin Y (Homo sapiens, UniProt Q00537)
[17] = target: KDR (VEGFR2) (Homo sapiens, UniProt P35968)
[18] = target: ADRBK2 (GRK3) (Homo sapiens, UniProt P35626)
[19] = target: PASK (Homo sapiens, UniProt Q96RG2)
[20] = target: YES1 (Homo sapiens, UniProt P07947)
[21] = target: TXK (Homo sapiens, UniProt P42681)
[22] = target: PTK6 (Brk) (Homo sapiens, UniProt Q13882)
[23] = target: INSR (Homo sapiens, UniProt P06213)
[24] = target: FYN (Homo sapiens, UniProt P06241)
[25] = target: FER (Homo sapiens, UniProt P16591)
[26] = target: MAP4K5 (KHS1) (Homo sapiens, UniProt Q9Y4K4)
[27] = target: TEK (TIE2) Y897S (Homo sapiens, UniProt Q02763, Y897S)
[28] = target: RPS6KA2 (RSK3) (Homo sapiens, UniProt Q15349)
[29] = target: CDKL5 (Homo sapiens, UniProt O76039)

Sequence of CSNK1E (CK1 epsilon) (P49674 whole entry): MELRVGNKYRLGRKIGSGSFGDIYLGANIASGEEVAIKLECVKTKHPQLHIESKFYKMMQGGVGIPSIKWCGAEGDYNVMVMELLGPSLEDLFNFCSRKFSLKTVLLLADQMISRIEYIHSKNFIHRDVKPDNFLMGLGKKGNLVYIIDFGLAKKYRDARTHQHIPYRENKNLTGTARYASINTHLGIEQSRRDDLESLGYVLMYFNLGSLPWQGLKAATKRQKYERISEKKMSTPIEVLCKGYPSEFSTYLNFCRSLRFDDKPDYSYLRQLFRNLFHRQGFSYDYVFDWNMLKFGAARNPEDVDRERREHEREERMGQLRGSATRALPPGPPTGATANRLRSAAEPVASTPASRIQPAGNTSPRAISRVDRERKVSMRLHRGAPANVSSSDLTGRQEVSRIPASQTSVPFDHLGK
Sequence of CAMK2A (CaMKII alpha) (Q9UQM7 whole entry): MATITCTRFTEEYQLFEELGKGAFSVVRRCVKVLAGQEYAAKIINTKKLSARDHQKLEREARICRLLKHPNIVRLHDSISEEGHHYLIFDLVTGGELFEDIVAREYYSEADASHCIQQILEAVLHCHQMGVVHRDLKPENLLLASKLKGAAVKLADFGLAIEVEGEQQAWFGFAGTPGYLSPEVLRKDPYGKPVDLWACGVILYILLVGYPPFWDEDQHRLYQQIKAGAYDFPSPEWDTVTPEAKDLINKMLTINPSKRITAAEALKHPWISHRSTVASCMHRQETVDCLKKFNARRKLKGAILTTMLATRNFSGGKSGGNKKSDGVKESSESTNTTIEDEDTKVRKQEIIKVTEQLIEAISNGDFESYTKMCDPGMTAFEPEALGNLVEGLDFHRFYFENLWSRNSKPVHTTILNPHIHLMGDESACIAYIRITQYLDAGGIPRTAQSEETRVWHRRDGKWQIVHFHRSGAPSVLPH
Sequence of PRKCZ (PKC zeta) (Q05513 whole entry): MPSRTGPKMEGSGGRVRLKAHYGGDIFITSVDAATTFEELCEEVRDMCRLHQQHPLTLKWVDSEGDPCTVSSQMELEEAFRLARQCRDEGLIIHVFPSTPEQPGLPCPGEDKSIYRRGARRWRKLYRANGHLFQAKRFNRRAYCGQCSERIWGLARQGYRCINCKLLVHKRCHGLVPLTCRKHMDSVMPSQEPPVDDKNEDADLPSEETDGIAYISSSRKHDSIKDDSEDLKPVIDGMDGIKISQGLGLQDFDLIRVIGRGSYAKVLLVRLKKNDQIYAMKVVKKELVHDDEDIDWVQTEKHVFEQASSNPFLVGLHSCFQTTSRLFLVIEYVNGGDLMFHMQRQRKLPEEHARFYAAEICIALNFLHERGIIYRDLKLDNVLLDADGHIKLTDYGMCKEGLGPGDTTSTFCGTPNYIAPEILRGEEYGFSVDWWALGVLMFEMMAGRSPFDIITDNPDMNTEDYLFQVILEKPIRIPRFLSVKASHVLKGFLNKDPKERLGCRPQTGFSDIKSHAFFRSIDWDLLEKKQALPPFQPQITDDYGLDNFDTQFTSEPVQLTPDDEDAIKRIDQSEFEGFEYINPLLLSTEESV
Sequence of TEK (TIE2) Y897S (Q02763 whole entry Y897S): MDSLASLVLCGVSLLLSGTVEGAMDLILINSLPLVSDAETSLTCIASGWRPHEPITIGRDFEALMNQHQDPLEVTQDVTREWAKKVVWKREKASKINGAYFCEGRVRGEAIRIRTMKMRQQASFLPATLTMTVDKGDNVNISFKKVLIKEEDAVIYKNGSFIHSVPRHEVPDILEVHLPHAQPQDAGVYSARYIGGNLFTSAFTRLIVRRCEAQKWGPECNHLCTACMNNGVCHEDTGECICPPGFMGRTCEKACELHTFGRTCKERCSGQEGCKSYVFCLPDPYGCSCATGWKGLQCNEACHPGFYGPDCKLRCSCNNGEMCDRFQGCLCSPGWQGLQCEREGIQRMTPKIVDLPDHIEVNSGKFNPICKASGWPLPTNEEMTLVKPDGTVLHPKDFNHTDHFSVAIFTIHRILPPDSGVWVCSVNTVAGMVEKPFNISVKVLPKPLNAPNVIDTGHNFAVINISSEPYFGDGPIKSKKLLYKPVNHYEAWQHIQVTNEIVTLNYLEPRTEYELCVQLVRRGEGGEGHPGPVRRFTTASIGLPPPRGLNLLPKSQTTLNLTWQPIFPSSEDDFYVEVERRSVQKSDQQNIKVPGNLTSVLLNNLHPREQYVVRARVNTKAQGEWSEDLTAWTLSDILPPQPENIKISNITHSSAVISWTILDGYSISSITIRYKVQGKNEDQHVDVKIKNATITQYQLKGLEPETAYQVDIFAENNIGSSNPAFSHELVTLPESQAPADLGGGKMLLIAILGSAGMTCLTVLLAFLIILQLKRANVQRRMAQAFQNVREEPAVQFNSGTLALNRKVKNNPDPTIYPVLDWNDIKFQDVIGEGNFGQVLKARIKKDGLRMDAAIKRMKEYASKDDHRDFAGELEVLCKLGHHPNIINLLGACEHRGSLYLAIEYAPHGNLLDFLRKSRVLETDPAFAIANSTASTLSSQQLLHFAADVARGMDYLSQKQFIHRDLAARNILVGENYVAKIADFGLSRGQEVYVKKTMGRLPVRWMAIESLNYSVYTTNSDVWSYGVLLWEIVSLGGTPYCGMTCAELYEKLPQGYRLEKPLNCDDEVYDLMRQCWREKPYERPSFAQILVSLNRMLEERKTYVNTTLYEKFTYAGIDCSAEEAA
Sequence of RPS6KA2 (RSK3) (Q15349 whole entry): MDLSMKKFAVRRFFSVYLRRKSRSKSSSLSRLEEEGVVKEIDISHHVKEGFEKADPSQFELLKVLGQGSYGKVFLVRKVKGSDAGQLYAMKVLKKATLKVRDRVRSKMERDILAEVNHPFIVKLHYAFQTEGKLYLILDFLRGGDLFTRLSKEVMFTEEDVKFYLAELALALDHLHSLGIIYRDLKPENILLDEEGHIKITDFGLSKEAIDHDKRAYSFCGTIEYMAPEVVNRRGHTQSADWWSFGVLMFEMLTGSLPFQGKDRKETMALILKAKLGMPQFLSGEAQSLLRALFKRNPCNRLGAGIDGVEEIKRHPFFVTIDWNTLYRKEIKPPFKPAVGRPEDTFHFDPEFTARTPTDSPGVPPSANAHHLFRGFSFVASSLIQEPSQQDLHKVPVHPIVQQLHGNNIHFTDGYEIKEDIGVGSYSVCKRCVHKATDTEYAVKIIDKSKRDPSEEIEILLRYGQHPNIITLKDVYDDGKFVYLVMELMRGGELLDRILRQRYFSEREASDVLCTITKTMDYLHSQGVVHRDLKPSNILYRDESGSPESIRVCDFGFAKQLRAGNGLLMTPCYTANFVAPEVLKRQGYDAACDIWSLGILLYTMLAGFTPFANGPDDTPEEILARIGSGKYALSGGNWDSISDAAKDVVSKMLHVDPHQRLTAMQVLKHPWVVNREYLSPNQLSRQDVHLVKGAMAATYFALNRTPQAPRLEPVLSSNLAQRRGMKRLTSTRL
Sequence of YES1 (P07947 whole entry): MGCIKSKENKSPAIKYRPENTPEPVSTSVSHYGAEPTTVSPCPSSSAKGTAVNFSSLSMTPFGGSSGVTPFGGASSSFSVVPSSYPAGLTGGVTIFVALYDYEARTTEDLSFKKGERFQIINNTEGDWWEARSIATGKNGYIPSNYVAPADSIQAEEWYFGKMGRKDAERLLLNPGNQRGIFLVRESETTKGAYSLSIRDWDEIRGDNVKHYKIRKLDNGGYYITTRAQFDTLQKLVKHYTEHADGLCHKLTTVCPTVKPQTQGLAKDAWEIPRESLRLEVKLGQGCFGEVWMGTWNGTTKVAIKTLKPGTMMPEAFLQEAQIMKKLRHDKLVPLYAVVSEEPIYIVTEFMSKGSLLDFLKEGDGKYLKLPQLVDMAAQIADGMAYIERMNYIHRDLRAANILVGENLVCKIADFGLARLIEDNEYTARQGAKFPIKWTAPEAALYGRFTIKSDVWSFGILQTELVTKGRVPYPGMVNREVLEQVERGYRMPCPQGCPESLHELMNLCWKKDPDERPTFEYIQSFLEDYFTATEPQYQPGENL
Sequence of MAP4K5 (KHS1) (Q9Y4K4 whole entry): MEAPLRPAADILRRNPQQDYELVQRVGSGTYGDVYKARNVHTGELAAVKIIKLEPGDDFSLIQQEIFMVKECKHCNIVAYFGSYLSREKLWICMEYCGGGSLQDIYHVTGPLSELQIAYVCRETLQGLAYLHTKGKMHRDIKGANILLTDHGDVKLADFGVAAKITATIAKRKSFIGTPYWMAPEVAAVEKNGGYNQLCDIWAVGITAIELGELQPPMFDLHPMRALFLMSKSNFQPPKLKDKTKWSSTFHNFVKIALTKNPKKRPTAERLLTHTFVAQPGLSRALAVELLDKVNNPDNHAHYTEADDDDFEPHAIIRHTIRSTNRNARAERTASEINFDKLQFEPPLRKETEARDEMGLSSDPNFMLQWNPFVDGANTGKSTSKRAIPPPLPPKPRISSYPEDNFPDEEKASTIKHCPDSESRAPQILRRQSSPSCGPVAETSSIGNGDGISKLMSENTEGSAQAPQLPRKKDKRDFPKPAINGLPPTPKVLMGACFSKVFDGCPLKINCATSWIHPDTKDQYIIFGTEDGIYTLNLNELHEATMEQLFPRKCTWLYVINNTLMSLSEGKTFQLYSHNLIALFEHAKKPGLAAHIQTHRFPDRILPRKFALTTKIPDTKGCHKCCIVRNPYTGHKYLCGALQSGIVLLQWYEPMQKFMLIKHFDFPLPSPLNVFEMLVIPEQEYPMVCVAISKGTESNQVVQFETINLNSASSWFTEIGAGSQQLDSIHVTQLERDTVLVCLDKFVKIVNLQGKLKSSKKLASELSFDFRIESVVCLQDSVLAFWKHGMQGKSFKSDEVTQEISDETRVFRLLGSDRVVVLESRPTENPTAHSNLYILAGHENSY

COc1ccc2nc3cc(Cl)ccc3c(Nc3cc(CN4CCCC4)c(O)c(CN4CCCC4)c3)c2n1 [Pyronaridine, 4-[(7-Chloro-2-methoxybenzo[b][1,5]naphthyridin-10-yl)amino]-2,6-bis(1-pyrrolidinylmethyl)phenol phosphate (1:4)]
inhibition at 1 µM [1]: 3%
inhibition at 1 µM [2]: 1%
inhibition at 1 µM [3]: -5%
inhibition at 1 µM [4]: -5%
inhibition at 1 µM [5]: 4%
inhibition at 1 µM [6]: 1%
inhibition at 1 µM [7]: -1%
inhibition at 1 µM [8]: -2%
inhibition at 1 µM [9]: -1%
inhibition at 1 µM [10]: 5%
inhibition at 1 µM [11]: 3%
inhibition at 1 µM [12]: 2%
inhibition at 1 µM [13]: 14%
inhibition at 1 µM [14]: 0%
inhibition at 1 µM [15]: 4%
inhibition at 1 µM [16]: -2%
inhibition at 1 µM [17]: 7%
inhibition at 1 µM [18]: -5%
inhibition at 1 µM [19]: -4%
inhibition at 1 µM [20]: -6%
inhibition at 1 µM [21]: 4%
inhibition at 1 µM [22]: -4%
inhibition at 1 µM [23]: 10%
inhibition at 1 µM [24]: 2%
inhibition at 1 µM [25]: -21%
inhibition at 1 µM [26]: 5%
inhibition at 1 µM [27]: 2%
inhibition at 1 µM [28]: 0%
inhibition at 1 µM [29]: 4%

— publication doi:10.1101/2021.09.30.462449v1 (biorxiv, 2021)
